Results: PubChem BioAssay (NCI)
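Interpolation was linear, between the two tested concentrations surrounding the appropriate level; five concentrations were tested over 48 hours in 96-well plates. TGI: concentration producing complete growth inhibition.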

Key:
Assay in all cases: NCI anticancer screen, dose series, 48 h
SR leukemia = test system: SR leukemia
SF-268 CNS = test system: SF-268 CNS
UO-31 renal = test system: UO-31 renal
TK-10 renal = test system: TK-10 renal
HOP-92 NSCLC = test system: HOP-92 NSCLC
786-0 renal = test system: 786-0 renal
MDA-MB-435 = test system: MDA-MB-435
M14 melanoma = test system: M14 melanoma
RPMI-8226 leukemia = test system: RPMI-8226 leukemia
NCI-H522 lung = test system: NCI-H522 lung
SF-539 CNS = test system: SF-539 CNS
SF-295 CNS = test system: SF-295 CNS
NCI-H460 lung = test system: NCI-H460 lung
IGROV1 ovarian = test system: IGROV1 ovarian
KM12 colon = test system: KM12 colon
HCT-116 colon = test system: HCT-116 colon
OVCAR-4 ovarian = test system: OVCAR-4 ovarian
CAKI-1 renal = test system: CAKI-1 renal
LOX IMVI melanoma = test system: LOX IMVI melanoma
CCRF-CEM leukemia = test system: CCRF-CEM leukemia
A498 renal = test system: A498 renal
HS 578T breast = test system: HS 578T breast
OVCAR-5 ovarian = test system: OVCAR-5 ovarian
PC-3 prostate = test system: PC-3 prostate
SNB-19 CNS = test system: SNB-19 CNS
SK-OV-3 ovarian = test system: SK-OV-3 ovarian
U251 CNS = test system: U251 CNS
HT29 colon = test system: HT29 colon
HL-60(TB) leukemia = test system: HL-60(TB) leukemia
DU-145 prostate = test system: DU-145 prostate
BT-549 breast = test system: BT-549 breast
MCF7 breast = test system: MCF7 breast
SW-620 colon = test system: SW-620 colon
OVCAR-3 ovarian = test system: OVCAR-3 ovarian
HCT-15 colon = test system: HCT-15 colon
SK-MEL-28 melanoma = test system: SK-MEL-28 melanoma
MALME-3M melanoma = test system: MALME-3M melanoma
MDA-N = test system: MDA-N
NCI-H23 lung = test system: NCI-H23 lung
HOP-62 NSCLC = test system: HOP-62 NSCLC
UACC-257 melanoma = test system: UACC-257 melanoma
COLO 205 colon = test system: COLO 205 colon
MDA-MB-231 breast = test system: MDA-MB-231 breast
RXF 393 renal = test system: RXF 393 renal
SK-MEL-5 melanoma = test system: SK-MEL-5 melanoma
NCI-H226 lung = test system: NCI-H226 lung
OVCAR-8 ovarian = test system: OVCAR-8 ovarian
K-562 leukemia = test system: K-562 leukemia
HCC-2998 colon = test system: HCC-2998 colon
EKVX NSCLC = test system: EKVX NSCLC
MOLT-4 leukemia = test system: MOLT-4 leukemia
SNB-75 CNS = test system: SNB-75 CNS
SK-MEL-2 melanoma = test system: SK-MEL-2 melanoma
UACC-62 melanoma = test system: UACC-62 melanoma
NCI/ADR-RES ovarian = test system: NCI/ADR-RES ovarian
A549 NSCLC = test system: A549 NSCLC
SN12C renal = test system: SN12C renal
ACHN renal = test system: ACHN renal
T-47D breast = test system: T-47D breast

With N=C(N)SCc1ccc(Cl)cc1Cl (tested in a mixture with another compound) the TGI (SR leukemia) was 22.8 µM, the TGI (SF-268 CNS) was 40 µM and the TGI (UO-31 renal) was 23.1 µM. It also gave a TGI (TK-10 renal) of 18.8 µM, a TGI (HOP-92 NSCLC) of 34.6 µM and a TGI (786-0 renal) of 26.9 µM. The TGI (MDA-MB-435) was 18.3 µM, the TGI (M14 melanoma) was 26.9 µM and the TGI (RPMI-8226 leukemia) was 12.7 µM. It also gave a TGI (NCI-H522 lung) of 30.8 µM, a TGI (SF-539 CNS) of 31.9 µM and a TGI (SF-295 CNS) of 31.3 µM. For the same molecule, the TGI (NCI-H460 lung) was 24.2 µM, the TGI (IGROV1 ovarian) was 42.9 µM and the TGI (KM12 colon) was 28.2 µM. For the same molecule, the TGI (HCT-116 colon) was 25 µM, the TGI (OVCAR-4 ovarian) was 38.8 µM and the TGI (CAKI-1 renal) was 24.2 µM. For the same molecule, the TGI (LOX IMVI melanoma) was 38.8 µM, the TGI (CCRF-CEM leukemia) was 15.5 µM and the TGI (A498 renal) was 27.5 µM. The TGI (HS 578T breast) was 45.2 µM, the TGI (OVCAR-5 ovarian) was 35.7 µM and the TGI (PC-3 prostate) was 24.6 µM. For the same molecule, the TGI (SNB-19 CNS) was 47.6 µM, the TGI (SK-OV-3 ovarian) was 40.2 µM and the TGI (U251 CNS) was 28.5 µM. The TGI (HT29 colon) was 29.2 µM, the TGI (HL-60(TB) leukemia) was 22.4 µM and the TGI (DU-145 prostate) was 29.8 µM. The TGI (BT-549 breast) was 36 µM, the TGI (MCF7 breast) was 28.5 µM and the TGI (SW-620 colon) was 37.6 µM. The TGI (OVCAR-3 ovarian) was 28.1 µM, the TGI (HCT-15 colon) was 35.1 µM and the TGI (SK-MEL-28 melanoma) was 45.3 µM. It also gave a TGI (MALME-3M melanoma) of 34.2 µM, a TGI (MDA-N) of 21.6 µM and a TGI (NCI-H23 lung) of 32.4 µM. It also gave a TGI (HOP-62 NSCLC) of 30.2 µM, a TGI (UACC-257 melanoma) of 20.7 µM and a TGI (COLO 205 colon) of 39.6 µM. For the same molecule, the TGI (MDA-MB-231 breast) was 25 µM, the TGI (RXF 393 renal) was 27.9 µM and the TGI (SK-MEL-5 melanoma) was 29.2 µM. The TGI (NCI-H226 lung) was 40.9 µM, the TGI (OVCAR-8 ovarian) was > 100 µM and the TGI (K-562 leukemia) was 25.5 µM. It also gave a TGI (HCC-2998 colon) of 21.5 µM, a TGI (EKVX NSCLC) of 37.2 µM and a TGI (MOLT-4 leukemia) of 35.4 µM. For the same molecule, the TGI (SNB-75 CNS) was 30.9 µM, the TGI (SK-MEL-2 melanoma) was 27.5 µM and the TGI (UACC-62 melanoma) was 28.3 µM. The TGI (NCI/ADR-RES ovarian) was 73.9 µM, the TGI (A549 NSCLC) was > 69.6 µM and the TGI (SN12C renal) was 27 µM. The TGI (ACHN renal) was 23.1 µM and the TGI (T-47D breast) was 39 µM.
